These results are taken from US20190183811A1, “COMPOSITION CONTAINING SQUALENE FOR IMPROVING MUSCLE FUNCTION AND PREVENTING MUSCLE DAMAGE” (AAT COSTECH CO., LTD., priority 2016, published 2019).

Test [1] deals with atrogin-1 mRNA in C2C12 muscle cells. Description: RT-PCR of atrogin-1 mRNA expression in C2C12 muscle cells treated with squalene. The test is classed as cell-based. Particulars: cultured 12 hours, FIG. 3. The protocol: (§1) Thus, in order to identify whether the produced muscle proteins can also be protected against degradation through degradation-inhibitory activity of squalene, mRNA transcriptional expression levels of atrogin-1 and MuRF1 which are muscle-degrading proteins were checked.
(§2) Specifically, C2C12 muscle cells were treated with squalene and cultured for 12 hours while inducing differentiation, by performing the same method as in the above <Example 1>. The resulting cells were obtained. Total RNA was isolated from the obtained cells using a TRIzol reagent (Invitrogen, Carlsbad, Calif., USA). The isolated total RNA was quantitated using NanoDrop 1000 (Thermo Fisher Scientific Inc., Waltham, Mass., USA). The quantified 16 μL of RNA was synthesized into cDNA using Reverse Transcriptase Premix (ELPISBIOTECH. INC) and a PCR machine (Gene Amp PCR System 2700; Applied Biosystems, Foster City, Calif., USA) under a condition at 42° C. for 55 minutes and 70° C. for 15 minutes. 3 μL of cDNA out of the synthesized cDNA, specific primers (BIONEER CORPORATION, Daejeon, Korea) as shown in the following [Table 1], and a PCR premix (ELPISBIOTECH. INC) were mixed, and PCR was performed by repeating 30 cycles of 95° C. for 30 seconds, 60° C. for 1 minute, and 72° C. for 1 minute. […]

Test [2] concerns p-p70S6K in C2C12 muscle cells. Description: Western blot of p-p70S6K protein in C2C12 muscle cells treated with squalene. It counts as cell-based. To be noted: FIG. 2. The protocol: Thus, in order to identify this fact in a more specific manner, a phosphorylation-induced activity level of p70S6K protein, which is known to be involved in an mRNA translation process in muscle cells, was checked, instead of an expression level of p-mTOR. Specifically, C2C12 muscle cells were treated with squalene and cultured while inducing differentiation, by performing the same method as in the above <Example 1>. The resulting cells were obtained and subjected to western blotting. A p-p70S6K antibody (Santa Cruz Biotechnology, Inc., Santa Cruz, Calif., USA) was used as a primary antibody for western blotting.

Test [3] has as its system MuRF1 mRNA in C2C12 muscle cells. Description: RT-PCR of MuRF1 mRNA expression in C2C12 muscle cells treated with squalene. The test is classed as cell-based. Particulars: cultured 12 hours, FIG. 3. The protocol:
as §1, §2

The subject of test [4] is immobilized rats (muscle atrophy and muscle damage). Description: Weight of tibialis anterior muscle of right hindlimb after immobilization. The test is classed as in vivo, rats (C57BL/6J). To be noted: muscle not damaged by stapler, squalene 100 and 200 mg/kg/day oral for one week, vs immobilized group, *P<0.05, FIG. 5. The protocol:
(§3) Seven-week-old male rats (C57BL/6J; DBL Co., Ltd.) were purchased as experimental animals, and experiments were conducted. All animals were kept at the Yonsei Laboratory Animal Research Center (YLARC, Seoul, Korea), and an environment under which the animals were kept was maintained at a temperature of 23±2° C. and a relative humidity of 55±10%. Before starting experiments, a total of 28 rats were randomly assigned to 7 rats per group, and the groups were divided into a normal group, an immobilized group, 100 mg/kg/day of squalene-administered group (squalene 100-administered group), and 200 mg/kg/day of squalene-administered group (squalene 200-administered group). After one week of adaptation, anesthesia was induced by intraperitoneal injection of 325 mg/kg of tribromoethanol (Sigma-Aldrich). […] One week later, the staples fixed on the gastrocnemius muscle and the sole were removed and squalene was orally administered at a concentration of 100 mg/kg and 200 mg/kg on a daily basis for one week. The normal group and the immobilized group were orally administered saline instead of squalene. After the measurement of muscular strength in the above <Example 4-2> was completed, the experimental animals were anesthetized by intraperitoneal injection of 325 mg/kg of tribromoethanol (Sigma-Aldrich), and then sacrificed by cardiac puncture. […]

Test [5] relates to p-mTOR in C2C12 muscle cells. Description: Western blot of phosphorylated mTOR (p-mTOR) in C2C12 muscle cells treated with squalene. The test is classed as cell-based. To be noted: FIG. 1. The protocol: In a case where mTOR protein is activated by phosphorylation, expression levels of major proteins in muscle cells which are expressed upon differentiation and are associated with muscle protein synthesis and muscle mass increase in a PI3K/Akt signaling pathway were checked. The obtained cells were lysed with an NP-40 buffer solution (ELPISBIOTECH. INC, Daejeon, Korea) containing a protease inhibitor cocktail (Sigma-Aldrich), and centrifuged at 13,000 rpm for 10 minutes to obtain a cell lysate which is a supernatant. A protein concentration in the supernatant was quantitated by Bradford. Then, a predetermined concentration of the proteins was heated for 5 minutes and separated by SDS-PAGE electrophoresis. The separated proteins were transferred to a nitrocellulose membrane. Then, a p-mTOR primary antibody (Cell Signaling Technology, Inc., Beverly, Mass., USA) was diluted with 2.5% bovine serum albumin (BSA; BioWORLD, Dublin, Ohio, USA) at a ratio of 1:1,000, and the resultant was allowed to react with the proteins, which had been transferred to the nitrocellulose membrane, at room temperature for 20 hours. […] Protein bands detected through antibody binding were developed using the ECL Western Blot Detection Reagent (Amersham, Tokyo, Japan), and the developed protein bands were identified using a G:BOX EF imaging system (Syngene, Cambridge, UK).
A general note: A western blot detects proteins with antibodies after separation by electrophoresis.

In test [6] the test system is immobilized rats (muscle atrophy and muscle damage). Description: Myofiber cross-sectional area in tibialis anterior muscle (H&E staining, Image J). The test is classed as in vivo, rats (C57BL/6J). To be noted: squalene 100 and 200 mg/kg/day oral for one week; vs immobilized group, **P<0.01; FIG. 6. The protocol:
Seven-week-old male rats (C57BL/6J; DBL Co., Ltd.) were purchased as experimental animals, and experiments were conducted. All animals were kept at the Yonsei Laboratory Animal Research Center (YLARC, Seoul, Korea), and an environment under which the animals were kept was maintained at a temperature of 23±2° C. and a relative humidity of 55±10%. Before starting experiments, a total of 28 rats were randomly assigned to 7 rats per group, and the groups were divided into a normal group, an immobilized group, 100 mg/kg/day of squalene-administered group (squalene 100-administered group), and 200 mg/kg/day of squalene-administered group (squalene 200-administered group). After one week of adaptation, anesthesia was induced by intraperitoneal injection of 325 mg/kg of tribromoethanol (Sigma-Aldrich). […] One week later, the staples fixed on the gastrocnemius muscle and the sole were removed and squalene was orally administered at a concentration of 100 mg/kg and 200 mg/kg on a daily basis for one week. The normal group and the immobilized group were orally administered saline instead of squalene. […] In addition, myofibers were photographed and a cross-sectional area thereof was measured with an Image J program (National Institutes of Health, Bethesda, […], USA).

The test system is the same in test [7]. Description: Weight of muscle physically directly damaged by the stapler (regeneration of damaged muscles). Particulars: right hindlimb, squalene 100 and 200 mg/kg/day oral for one week, vs immobilized group, **P<0.01, FIG. 7. The test is classed as in vivo, rats (C57BL/6J). The procedure:
Seven-week-old male rats (C57BL/6J; DBL Co., Ltd.) were purchased as experimental animals, and experiments were conducted. All animals were kept at the Yonsei Laboratory Animal Research Center (YLARC, Seoul, Korea), and an environment under which the animals were kept was maintained at a temperature of 23±2° C. and a relative humidity of 55±10%. Before starting experiments, a total of 28 rats were randomly assigned to 7 rats per group, and the groups were divided into a normal group, an immobilized group, 100 mg/kg/day of squalene-administered group (squalene 100-administered group), and 200 mg/kg/day of squalene-administered group (squalene 200-administered group). After one week of adaptation, anesthesia was induced by intraperitoneal injection of 325 mg/kg of tribromoethanol (Sigma-Aldrich). […] One week later, the staples fixed on the gastrocnemius muscle and the sole were removed and squalene was orally administered at a concentration of 100 mg/kg and 200 mg/kg on a daily basis for one week. The normal group and the immobilized group were orally administered saline instead of squalene. In the rat from which the tibialis anterior muscle of the right hindlimb was extracted in the above <Example 4-3>, a […] of the right hind limb, which was physically directly damaged by the stapler, was extracted and weighed.

Test [8] has the same test system. Description: Muscular strength (muscular strength meter) after hindlimb immobilization. It counts as in vivo, rats (C57BL/6J). To be noted: squalene 100 and 200 mg/kg/day oral for one week after one week immobilization; vs immobilized group, **P<0.01; FIG. 4. The protocol: as §3, with “the oral administration period was completed” for “the measurement of muscular strength”, “<Example 4-1>, muscular strength of the rats” for “<Example 4-2>”, “was measured using a muscular strength meter (Columbus Instruments International, Columbus, Ohio, USA). All forelimbs and hindlimbs of” for “was completed,”, “the rat” for “the experimental animals”, “were grasped on a grid.” for “were anesthetized by intraperitoneal injection of 325 mg/kg of tribromoethanol (Sigma-Aldrich), and then sacrificed by cardiac puncture.”

As for `CC(C)=CCC/C(C)=C/CC/C(C)=C/CC/C=C(\C)CC/C=C(\C)CCC=C(C)C` [squalene, (6E,10E,14E,18E)-2,6,10,15,19,23-hexamethyltetracosa-2,6,10,14,18,22-hexaene], in test [1], the “mRNA expression level of atrogin-1” value is “decreased”. Besides, the “expression level of the p-p70S6K protein” value in test [2] is given as “increased”. Also, the “mRNA expression level of MuRF1” value in test [3] was “decreased”. Also, the “weight of the tibialis anterior muscle” value in test [4] is listed as “increased in a concentration-dependent manner”. In addition, the “expression level of phosphorylated mTOR (p-mTOR)” value in test [5] was “increased”. Moreover, in test [6], the “myofiber cross-sectional area in the tibialis anterior muscle” value was “increased in a concentration-dependent manner”. Besides, the “weight of the tibialis anterior muscle physically directly damaged by the stapler” value in test [7] is recorded as “increased in a concentration-dependent manner”. Besides, the muscular strength result in test [8] was “restored in a concentration-dependent manner”.
